The text below walks through data of publication PMC6013775, “Inhibition of the key enzyme of sialic acid biosynthesis by C6-Se modified N-acetylmannosamine analogs” (Chemical Science, 2016).

This test deals with T1, human MNK (N-acetylmannosamine kinase) (Homo sapiens, UniProt Q9Y223).
T1 construct: His; made in house; host or cells: Escherichia coli BL21-CodonPlus (DE3)-RIL
T1 sequence (Q9Y223 406-722 limits assumed): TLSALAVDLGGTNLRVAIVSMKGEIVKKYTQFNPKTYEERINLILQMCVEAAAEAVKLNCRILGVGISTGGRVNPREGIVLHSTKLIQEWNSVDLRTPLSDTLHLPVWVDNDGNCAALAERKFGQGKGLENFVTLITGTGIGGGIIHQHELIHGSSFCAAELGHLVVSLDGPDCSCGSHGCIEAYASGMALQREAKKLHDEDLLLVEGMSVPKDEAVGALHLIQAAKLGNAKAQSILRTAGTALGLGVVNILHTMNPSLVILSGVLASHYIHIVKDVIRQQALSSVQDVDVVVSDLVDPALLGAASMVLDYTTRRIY
Put plainly: MNK activity, coupled optical assay based on NADH consumption. The format is biochemical. The protocol:
N-Acetylmannosamine kinase and N-acetylglucosamine kinase expression and […]
Human N-acetylmannosamine kinase (MNK) was expressed and purified using an established method.1 Therefore, his-tagged MNK was expressed in BL21-CodonPlus (DE3)-RIL Escherichia coli (Stragene). Purification was performed by Ni-NTA affinity chromatography, and subsequently size exclusion chromatography on a SuperdexTM HighLoad 16/600 column (GE Healthcare). […]
To evaluate their purity, protein samples were mixed with SDS-PAGE sample buffer, denatured at 90 °C for 1 min and separated by a 10% SDS-PAGE gel. Proteins were visualized with Coomassie G-250 staining solution (Biorad), and PageRuler Prestained Plus (Biorad) was used as a marker (Figure S1 ).
Figure S1. SDS-PAGE of His-tagged MNK (His-MNK) and GST-tagged GNK
(GST-GNK) after affinity chromatography and size exclusion chromatography.
Apparent molecular masses given by the marker are indicated on the left side.
1 J. Martinez, L. D. Nguyen, S. Hinderlich, R. Zimmer, E. Tauberger, W. Reutter, W. Saenger, H. Fan
2 W.A. Weihofen, M. Berger, H. Chen, W. Saenger, and S. Hinderlich, J. Mol. Biol., 2006, 364, 388.
(1 picture or pasted object on this page, not shown here)
Enzyme activity and inhibition studies using N-acetylmannosamine kinase, N-acetylglucosamine kinase and yeast hexokinase
Evaluation MNK activity in presence of the compounds 11, 12, 14b, 16b and 18b The effects of compounds 11, 12, 14b, 16b, or 18b on MNK enzyme activity were evaluated using a coupled optical assay. 55 µl reaction mixture contained the following buffers and reagents: 39.5 µl buffer A (65 mM MgCl2, 200 mM Tris-HCl, pH 8.1), 5 µl ATP (50 mM), 3.5 µl NADH (30 mM), 2 µl phosphoenolpyruvate (100 mM), 2 U pyruvate-kinase, 2 U lactate-dehydrogenase, 5 µl ManNAc of varying concentrations. Subsequently, 10 µl of the compounds 11, 12, 14b, 16b and 18b were added in varying concentrations. The reaction was initiated by adding 0.6 µg MNK in 35 µL buffer B (10 mM Tris-HCl, 150 mM NaCl, pH 8.0). Samples were incubated at 37°C. Spectrophotometric measurements of NADH concentration was performed at 340 nm. Results obtained were normalized to blanks, consisting of 55 µl reaction mixture, 10 µl H 2O and 35 µl buffer B without MNK.
GNK and hexokinase inhibition assays using compound 14b
To evaluate the specificity of the inhibitor 14b towards other sugar kinases, we performed further inhibition experiments using human GNK and hexokinase (HK) from yeast (Sigma, H-5000). 39.5 µl Buffer A (see above), 5 µl ATP (50 mM), 3.5 µl NADH (30 mM), 2 µl phosphoenolpyruvate (100 mM), 2 U pyruvate-kinase, 2 U lactate-dehydrogenase, 5 µl GlcNAc (7.5 mM, for GNK experiments), or 5 µl ManNAc (7.5 mM, for GNK experiments), or glucose (5 mM, for HK experiments), and 10 µl 14b (varying concentrations) were mixed with either 1 µg GNK or 0.2 µg HK in 35 µL buffer B. The decrease of NADH was measured in a spectrophotometer […]
5 mM for HK activity, respectively (Figure S2).
Figure S2. Inhibition of GNK and HK activity by 14b. Values are means ± SEM of […]

For `CC(=O)N[C@@H]1C(O)O[C@H](C[Se][Se]C[C@H]2OC(O)[C@@H](NC(C)=O)[C@@H](O)[C@@H]2O)[C@@H](O)[C@@H]1O` (stereo partly drawn) [Compound 14b], the “mode of inhibition towards ManNAc” value (14b 25 μM, different concentrations of ManNAc) is listed as “competitive inhibition”. For the setting “14b 25 μM, different concentrations of ManNAc, Lineweaver-Burk plot, read-out: inhibitor constant (Ki)”, the Ki came out at 15.7 µM. Further, the IC50 (purified human MNK, ManNAc 125 μM, ATP, means ± SEM, read-out: IC50 for MNK inhibition) was determined as 8.5 µM.
